In patent publication US20260184663A1, “INDENE COMPOUNDS, PHARMACEUTICAL COMPOSITIONS THEREOF, AND THEIR THERAPEUTIC APPLICATIONS” (NucMito Pharmaceuticals co. Ltd., priority 2022, published 2026):

Legend:
Type in all cases: cell-based
[1] = system: MDA-MB-231 (breast cancer); experiment: Antiproliferative activity (CCK-8 cell viability), MDA-MB-231; conditions: Homo sapiens, 72 h; for inhibition at 3.3 µM: Compound concentration: 3.3 μM; for inhibition at 3.3 µM / inhibition at 10 µM: read-out: Antiproliferative activity in cancerous cells, MDA-MB-231 (inhibition of cell growth); for inhibition at 10 µM: Compound concentration: 10 μM; for inhibition at 30 µM: Compound concentration: 30 μM, read-out: Antiproliferative activity in cancerous cells, MDA-MB-231
In short: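 MDA-MB-231 breast cancer cells, grown in DMEM with 10% FBS, were plated in 96-well plates at 2,000-5,000 cells/well. Once attached, they were exposed to compound and incubated at 37° C. for 72 h. Viability was then measured with CCK-8 (10 μL per well, 4 h at 37° C.) by absorbance at 450 nm, relative to DMSO vehicle wells.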

[2] = system: HepG2 (liver cancer); experiment: Antiproliferative activity (CCK-8 cell viability), HepG2; conditions: Homo sapiens, 72 h, read-out: Antiproliferative activity in cancerous cells, HepG2 (inhibition of cell growth); for inhibition at 3.3 µM: Compound concentration: 3.3 μM; for inhibition at 10 µM: Compound concentration: 10 μM
In short: (§1)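 Cells grown in DMEM (HepG2, SW480), MEM (HeLa) or F-12K (A549), each with 10% FBS, then exposed to compound at 3.3, 10 or 30 μM for 72 h at 37 °C. CCK-8 absorbance at 450 nm; viability expressed as percent of DMSO-treated cells, graded as growth inhibition bands.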

[3] = system: SW480 (colon cancer); experiment: Antiproliferative activity (CCK-8 cell viability), SW480; conditions: Homo sapiens, 72 h; for inhibition at 3.3 µM: Compound concentration: 3.3 μM; for inhibition at 3.3 µM / inhibition at 10 µM: read-out: Antiproliferative activity in cancerous cells, SW480 (inhibition of cell growth); for inhibition at 10 µM: Compound concentration: 10 μM; for inhibition at 30 µM: Compound concentration: 30 μM, read-out: Antiproliferative activity in cancerous cells, SW480
In short: as §1

[4] = system: B16F10 (malignant melanoma); experiment: Antiproliferative activity (CCK-8 cell viability), B16F10; conditions: Mus musculus, 72 h, read-out: Antiproliferative activity in cancerous cells, B16F10 (inhibition of cell growth); for inhibition at 3.3 µM: B16-F10, Compound concentration: 3.3 μM; for inhibition at 10 µM: B16-F10, Compound concentration: 10 μM
In short: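 B16F10 melanoma cells grown in DMEM with 10% FBS were plated in 96-well plates at 2,000-5,000 cells/well. After attachment they were exposed to compound in medium for 72 h at 37° C. CCK-8 solution (10 μL) was then added, and after 4 h at 37° C absorbance was read at 450 nm.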

[5] = system: A431 (epidermoid carcinoma); experiment: Antiproliferative activity (CCK-8 cell viability), A431; conditions: Homo sapiens, 72 h, read-out: Antiproliferative activity in cancerous cells, A431 (inhibition of cell growth); for inhibition at 3.3 µM: A-431, Compound concentration: 3.3 μM; for inhibition at 10 µM: A-431, Compound concentration: 10 μM
In short: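 A431 epidermoid carcinoma cells grown in DMEM with 10% FBS were plated at 2,000-5,000 cells/well in 96-well plates. After attachment they were exposed to compound at 3.3 μM, 10 μM, or 30 μM for 72 h at 37° C. Viability was then assessed by CCK-8 against DMSO vehicle-treated wells.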

[6] = system: A549 (lung adenocarcinoma); experiment: Antiproliferative activity (CCK-8 cell viability), A549; conditions: Homo sapiens, 72 h; for inhibition at 3.3 µM: Compound concentration: 3.3 μM; for inhibition at 3.3 µM / inhibition at 10 µM: read-out: Antiproliferative activity in cancerous cells, A549 (inhibition of cell growth); for inhibition at 10 µM: Compound concentration: 10 μM; for inhibition at 30 µM: Compound concentration: 30 μM, read-out: Antiproliferative activity in cancerous cells, A549
In short: as §1

[7] = system: HeLa (cervical cancer); experiment: Antiproliferative activity (CCK-8 cell viability), HeLa; conditions: Homo sapiens, 72 h, read-out: Antiproliferative activity in cancerous cells, HELA (inhibition of cell growth); for inhibition at 3.3 µM: Compound concentration: 3.3 μM; for inhibition at 10 µM: Compound concentration: 10 μM
In short: as §1

SMILES | inhibition at 3.3 µM [1] | inhibition at 10 µM [1] | inhibition at 3.3 µM [2] | inhibition at 10 µM [2] | inhibition at 3.3 µM [3] | inhibition at 10 µM [3] | inhibition at 3.3 µM [4] | inhibition at 10 µM [4] | inhibition at 3.3 µM [5] | inhibition at 10 µM [5] | inhibition at 3.3 µM [6] | inhibition at 10 µM [6] | inhibition at 3.3 µM [7] | inhibition at 10 µM [7] | inhibition at 30 µM [1] | inhibition at 30 µM [3] | inhibition at 30 µM [6]
CC1=C(CC(=O)O)c2cc(Cl)ccc2/C1=C\c1ccc(Oc2ccc(Cl)cc2)cc1 [C62, (Z)-2-(5-Chloro-1-(4-(4-chlorophenoxy)benzylidene)-2-methyl-1H-inden-3-yl)acetic acid] | < 30% | < 30% | ≥ 50% | ≥ 50% | < 30% | 30 to 50% | < 30% | ≥ 50% | 30 to 50% | ≥ 50% | 30 to 50% | ≥ 50% | 30 to 50% | ≥ 50% |  |  | 
CC1=C(CC(=O)O)c2cc(Cl)ccc2/C1=C\c1ccc(Oc2ccc(F)cc2)cc1 [C63, (Z)-2-(5-Chloro-1-(4-(4-fluorophenoxy)benzylidene)-2-methyl-1H-inden-3-yl)acetic acid] | < 30% | < 30% | 30 to 50% | ≥ 50% | < 30% | < 30% | 30 to 50% | 30 to 50% | ≥ 50% | ≥ 50% | 30 to 50% | 30 to 50% | 30 to 50% | ≥ 50% | 30 to 50% | < 30% | 30 to 50%
CC1=C(CC(=O)O)c2cc(F)ccc2/C1=C\c1ccc(Oc2ccc(Cl)cc2)cc1C [C64, (Z)-2-(1-(4-(4-Chlorophenoxy)-2-methylbenzylidene)-5-fluoro-2-methyl-1H-inden-3-yl)acetic acid] | < 30% | 30 to 50% | ≥ 50% | ≥ 50% | < 30% | ≥ 50% | 30 to 50% | ≥ 50% | ≥ 50% | ≥ 50% | 30 to 50% | ≥ 50% | ≥ 50% | ≥ 50% |  |  | 
CC1=C(CC(=O)O)c2cc(F)ccc2/C1=C\c1ccc(Oc2ccc(Cl)nc2)cc1 [C65, (Z)-2-(1-(4-((6-Chloropyridin-3-yl)oxy)benzylidene)-5-fluoro-2-methyl-1H-inden-3-yl)acetic acid] | < 30% | < 30% | 30 to 50% | ≥ 50% | < 30% | < 30% | 30 to 50% | ≥ 50% | ≥ 50% | ≥ 50% | < 30% | ≥ 50% | 30 to 50% | ≥ 50% |  |  | 
CC1=C(CC(=O)O)c2cc(F)ccc2/C1=C\c1ccc(Oc2ccc(Cl)cc2Cl)cc1 [C66, (Z)-2-(1-(4-(2,4-Dichlorophenoxy)benzylidene)-5-fluoro-2-methyl-1H-inden-3-yl)acetic acid] | < 30% | ≥ 50% | ≥ 50% | ≥ 50% | < 30% | < 30% | < 30% | ≥ 50% | ≥ 50% | ≥ 50% | 30 to 50% | ≥ 50% | ≥ 50% | ≥ 50% |  |  | 
CC1=C(CC(=O)O)c2ccc(Cl)cc2/C1=C\c1ccc(Oc2ccc(F)cc2)cc1 [C67, (Z)-2-(6-Chloro-1-(4-(4-fluorophenoxy)benzylidene)-2-methyl-1H-inden-3-yl)acetic acid] | < 30% | ≥ 50% | 30 to 50% | ≥ 50% | 30 to 50% | 30 to 50% | < 30% | < 30% | 30 to 50% | ≥ 50% | < 30% | ≥ 50% | < 30% | < 30% |  |  | 
CC1=C(CC(=O)O)c2cc(F)ccc2/C1=C\c1ccc(Oc2ccc(F)cc2Cl)cc1 [C68, (Z)-2-(1-(4-(2-Chloro-4-fluorophenoxy)benzylidene)-5-fluoro-2-methyl-1H-inden-3-yl)acetic acid] | < 30% | < 30% | < 30% | ≥ 50% | ≥ 50% | ≥ 50% | < 30% | < 30% | 30 to 50% | ≥ 50% | < 30% | ≥ 50% | < 30% | < 30% |  |  | 
COc1ccc(Oc2ccc(/C=C3/C(C)=C(CC(=O)O)c4cc(F)ccc43)cc2)cc1Cl [C70, (Z)-2-(1-(4-(3-Chloro-4-methoxyphenoxy)benzylidene)-5-fluoro-2-methyl-1H-inden-3-yl)acetic acid] | < 30% | < 30% | < 30% | ≥ 50% | < 30% | < 30% | < 30% | 30 to 50% | ≥ 50% | ≥ 50% | < 30% | 30 to 50% | < 30% | ≥ 50% | 30 to 50% | < 30% | 
COc1cc(Oc2ccc(/C=C3/C(C)=C(CC(=O)O)c4cc(F)ccc43)cc2)ccc1Cl [C71, (Z)-2-(1-(4-(4-Chloro-3-methoxyphenoxy)benzylidene)-5-fluoro-2-methyl-1H-inden-3-yl)acetic acid] | < 30% | 30 to 50% | ≥ 50% | ≥ 50% | < 30% | ≥ 50% | ≥ 50% | ≥ 50% | ≥ 50% | ≥ 50% | < 30% | 30 to 50% | 30 to 50% | ≥ 50% |  |  | 
COc1ccc2c(c1)C(CC(=O)O)=C(C)/C2=C/c1ccc(Oc2ccc(Cl)cc2)cc1 [C72, (Z)-2-(1-(4-(4-Chlorophenoxy)benzylidene)-5-methoxy-2-methyl-1H-inden-3-yl)acetic acid] | 30 to 50% | 30 to 50% | < 30% | < 30% | < 30% | < 30% | ≥ 50% | ≥ 50% | 30 to 50% | 30 to 50% | < 30% | < 30% | ≥ 50% | ≥ 50% |  | < 30% | 30 to 50%
